One series deals with Hepatitis C virus. Kind of series: Antiviral activity against HCV infected in human hepatoma cells assessed as inhibition of viral RNA replication after 3 days by real time PCR analysis. In kind it is functional, organism-based, Hepacivirus hominis. Conditions: 72 h.
The nature of series [1]: Inhibition of HCV genotype 1b C-terminal polyhistidine-tagged NS5B Cdelta21 RdRp expressed in Escherichia coli using DCoH75 as template assessed as incorporation of [33P]-CTP in polynucleotide sequence after 2 hrs by scintillation counting analysis. On the set-up: species or system Hepatitis C virus subtype 1b.
Series [2] can be described thus: AUC (0 to 6 hrs) in rat at 10 mg/kg, po. It counts as ADME, organism-based. Conditions: plasma. On the set-up: time < 6 hr, dose 10 mg/kg, route oral.

Regarding `CC(C)(C)C(=O)OCn1cccc(-c2c(C(=O)O)n(Cc3cc4c(=O)[nH]cnc4cc3F)c3cc(F)c4ccoc4c23)c1=O`, the EC50 with Hepatitis C virus came out at 67 nM. Besides, the IC50 in series [1] is 51 nM.

In the case of `O=C(O)c1ccc(F)c(Cn2c(C(=O)O)c(-c3ccc[nH]c3=O)c3c4occc4c(F)cc32)c1`, in the series with Hepatitis C virus, the EC50 is 700 nM. Moreover, in series [1], the IC50 was 5 nM.

Regarding `O=C(O)c1c(-c2ccc[nH]c2=O)c2c3occc3c(F)cc2n1Cc1cc2[nH]c(=O)[nH]c2cc1F`, in series [2], the AUC(0-t) at 6 h came to 4 µM·h. Besides, the EC50 in the series on Hepatitis C virus is 10 nM. Further, the IC50 in series [1] was 7 nM.

As for `Cn1c(=O)[nH]c(=O)c2cc(Cn3c(C(=O)O)c(-c4ccc[nH]c4=O)c4c5occc5c(F)cc43)c(F)cc21`, the EC50 with Hepatitis C virus stood at 300 nM. Also, the IC50 in series [1] amounted to 6 nM.

In the case of `NC(=O)c1ccc(F)c(Cn2c(C(=O)NS(=O)(=O)C3CC3)c(-c3ccc[nH]c3=O)c3cc(C(F)(F)F)c(F)cc32)c1`, in the series with Hepatitis C virus, the EC50 was determined as 150 nM. In series [1], the IC50 worked out at 8 nM.

`CCc1cc2c(-c3ccc[nH]c3=O)c(C(=O)NS(=O)(=O)C3CC3)n(Cc3cc(C(N)=O)ccc3F)c2cc1F`: the half-maximal effective concentration (EC50) with Hepatitis C virus was 60 nM. Moreover, the IC50 in series [1] was found to be 5 nM.

On to `Cc1cc2c(-c3ccc[nH]c3=O)c(C(=O)NS(=O)(=O)C3CC3)n(Cc3cc(C(N)=O)ccc3F)c2cc1F`, for which the EC50 with Hepatitis C virus turned out to be 50 nM. The IC50 in series [1] was found to be 4 nM.

Turning to `CCc1ccc2c(c1)c(-c1ccc[nH]c1=O)c(C(=O)NS(=O)(=O)C1CC1)n2Cc1cc(S(C)(=O)=O)ccc1F`, the EC50 in the series with Hepatitis C virus was found to be 80 nM. In addition, the IC50 in series [1] came to 8 nM.

In series [2], `Cn1cnc2cc(F)c(Cn3c(C(=O)O)c(-c4ccc[nH]c4=O)c4c5occc5c(F)cc43)cc2c1=O` returned an AUC(0-t) at 6 h of 0.17 µM·h. In the series on Hepatitis C virus, the EC50 worked out at 250 nM. The concentration for half-maximal inhibition (IC50) in series [1] worked out at 3 nM.

As to `CCc1ccc2c(c1)c(-c1ccc[nH]c1=O)c(C(=O)NS(=O)(=O)C1CC1)n2Cc1cc(F)ccc1F`, the EC50 in the series on Hepatitis C virus turned out to be 40 nM. Besides, the IC50 in series [1] was 3 nM.

As for `CC(C)(C)C(=O)OCn1cnc2cc(F)c(Cn3c(C(=O)O)c(-c4ccc[nH]c4=O)c4c5occc5c(F)cc43)cc2c1=O`, the EC50 with Hepatitis C virus came out at 10 nM. Moreover, in series [1], the IC50 was 13 nM.

In the case of `CCc1ccc2c(c1)c(-c1ccc[nH]c1=O)c(C(=O)NS(=O)(=O)C1CC1)n2Cc1cc(O)ccc1F`, the EC50 in the series with Hepatitis C virus amounted to 100 nM. Further, the IC50 in series [1] was determined as 5 nM.

On to `CCOC(=O)c1c(-c2ccc[nH]c2=O)c2c3occc3c(F)cc2n1Cc1cc2c(=O)n(COC(=O)C(C)(C)C)cnc2cc1F`, for which the half-maximal effective concentration (EC50) with Hepatitis C virus was found to be 69 nM. Also, the IC50 in series [1] turned out to be 400 nM.

On to `CCc1ccc2c(c1)c(-c1ccc[nH]c1=O)c(C(=O)NS(=O)(=O)C1CC1)n2Cc1cc(C(N)=O)ccc1F`, for which the concentration for a half-maximal effect (EC50) in the series on Hepatitis C virus stood at 30 nM. Also, in series [1], the IC50 stood at 12 nM.

`CCc1ccc2c(c1)c(-c1ccc[nH]c1=O)c(C(=O)NS(=O)(=O)C1CC1)n2Cc1cc(S(N)(=O)=O)ccc1F`: the EC50 with Hepatitis C virus was found to be 80 nM. The IC50 in series [1] is 5 nM.

In series [2], `Cc1nc2cc(F)c(Cn3c(C(=O)O)c(-c4ccc[nH]c4=O)c4c5occc5c(F)cc43)cc2c(=O)[nH]1` had an AUC(0-t) at 6 h of 0.85 µM·h. Also, the EC50 in the series with Hepatitis C virus stood at 20 nM. Further, the IC50 in series [1] turned out to be 4 nM.

`O=C(O)c1c(-c2ccc[nH]c2=O)c2c3occc3c(F)cc2n1Cc1cc2[nH]c(=O)oc2cc1F`: in the series with Hepatitis C virus, the EC50 came to 2000 nM. In addition, the IC50 in series [1] came to 2000 nM.

`NC(=O)c1ccc(F)c(Cn2c(C(=O)NS(=O)(=O)C3CC3)c(-c3ccc[nH]c3=O)c3cc(C(F)(F)F)ccc32)c1`: the EC50 in the series on Hepatitis C virus was 170 nM. The IC50 in series [1] was found to be 6 nM.

With `NC(=O)c1ccc(F)c(Cn2c(C(=O)O)c(-c3ccc[nH]c3=O)c3c4occc4c(F)cc32)c1`, in series [1], the IC50 came out at 4 nM.

For the compound `Cc1ccc2c(c1)c(-c1ccc[nH]c1=O)c(C(=O)NS(=O)(=O)C1CC1)n2Cc1cc(C(N)=O)ccc1F`, in series [1], the IC50 came out at 4 nM.

For the compound `CCc1ccc2c(c1)c(-c1ccc[nH]c1=O)c(C(=O)NS(=O)(=O)C1CC1)n2Cc1cc(C#N)ccc1F`, the EC50 with Hepatitis C virus came to 80 nM. Besides, the IC50 in series [1] was 7 nM.
